Assay results as given in ChEMBL document CHEMBL5038661, “Identification of a Novel 2,8-Diazaspiro[4.5]decan-1-one Derivative as a Potent and Selective Dual TYK2/JAK1 Inhibitor for the Treatment of Inflammatory Bowel Disease” (J Med Chem, 2022).

Experiments:
[1] = human, microsomes
in vivo [2] = settings: Sprague-Dawley, rat, po, 5 mg/kg
in vivo [3] = settings: Sprague-Dawley, rat, po, 5 mg/kg; remark: listed apart in the source
in vivo [4] = settings: Sprague-Dawley, rat, po, 5 mg/kg; remark: listed apart in the source
in vivo [5] = settings: Sprague-Dawley, rat, po, 5 mg/kg; remark: listed apart in the source
in vivo [6] = settings: Sprague-Dawley, rat, po, 5 mg/kg; remark: listed apart in the source

Row | SMILES | Stability [1] | Cmax at 24 h (in vivo [2]) | CL/F at 24 h (in vivo [3]) | half-life at 24 h (in vivo [4]) | AUC(0-t) (in vivo [5]) | bioavailability at 24 h (in vivo [6])
1 | Cc1cnc(Nc2cnn(C)c2)nc1N1CCC2(CCNC2=O)CC1 | Stable | 415 ng/mL | 41.5 mL/min/kg | 2.8 h | 2100 ng·h/mL | 59.3%
2 | [2H]C([2H])([2H])n1cc(Nc2ncc(C)c(N3CCC4(CCNC4=O)CC3)n2)cn1 | Unstable |  |  |  |  | 
